Values joined by “and” are separate entries in the source; they are usually repeats but may differ in a detail not shown here. Equal values may be shown once. Inconclusive results and toxic doses are left out. Rule for the calls: active = survival T/C of 150% or more; inactive = T/C below 125% in these data.
Tested on: P388 leukemia ip, CD2F1 mice, survival T/C
Test: NCI In Vivo Anticancer Drug Screen. Data for tumor model P388 Leukemia (intraperitoneal) in CD2F1 (CDF1) mice
Details: endpoint: median survival time, higher = longer survival
How it was run: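 Mice carrying the transplanted tumor received test compound or vehicle. Survival was recorded in each group, and the value is the treated-group measurement divided by that of the vehicle-treated control group.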

[1] = dose: 50.0 mg/kg/injection, schedule: Q01DX009 (ip), vehicle: saline with Tween-80
[2] = dose: 100.0 mg/kg/injection, schedule: Q01DX009 (ip), vehicle: saline with Tween-80
[3] = dose: 200.0 mg/kg/injection, schedule: Q01DX009 (ip), vehicle: saline with Tween-80
[4] = dose: 50.0 mg/kg/injection, schedule: Q04DX003 (ip), vehicle: saline with Tween-80
[5] = dose: 100.0 mg/kg/injection, schedule: Q04DX003 (ip), vehicle: saline with Tween-80
[6] = dose: 200.0 mg/kg/injection, schedule: Q04DX003 (ip), vehicle: saline with Tween-80
[7] = dose: 50.0 mg/kg/injection, schedule: Q01DX009 (ip), vehicle: Klucel (hydroxypropylcellulose) (HPC)
[8] = dose: 100.0 mg/kg/injection, schedule: Q01DX009 (ip), vehicle: Klucel (hydroxypropylcellulose) (HPC)
[9] = dose: 200.0 mg/kg/injection, schedule: Q01DX009 (ip), vehicle: Klucel (hydroxypropylcellulose) (HPC)
[10] = dose: 60.0 mg/kg/injection, schedule: Q01DX005 (ip), vehicle: saline
[11] = dose: 120.0 mg/kg/injection, schedule: Q01DX005 (ip), vehicle: saline
[12] = dose: 240.0 mg/kg/injection, schedule: Q01DX005 (ip), vehicle: saline
[13] = dose: 50.0 mg/kg/injection, schedule: Q01DX009 (ip), vehicle: saline
[14] = dose: 100.0 mg/kg/injection, schedule: Q01DX009 (ip), vehicle: saline
[15] = dose: 200.0 mg/kg/injection, schedule: Q01DX009 (ip), vehicle: saline
[16] = dose: 50.0 mg/kg/injection, schedule: Q01DX005 (ip), vehicle: saline with Tween-80
[17] = dose: 100.0 mg/kg/injection, schedule: Q01DX005 (ip), vehicle: saline with Tween-80
[18] = dose: 200.0 mg/kg/injection, schedule: Q01DX005 (ip), vehicle: saline with Tween-80
[19] = dose: 25.0 mg/kg/injection, schedule: Q01DX005 (ip), vehicle: Klucel (hydroxypropylcellulose) (HPC)
[20] = dose: 50.0 mg/kg/injection, schedule: Q01DX005 (ip), vehicle: Klucel (hydroxypropylcellulose) (HPC)
[21] = dose: 100.0 mg/kg/injection, schedule: Q01DX005 (ip), vehicle: Klucel (hydroxypropylcellulose) (HPC)
[22] = dose: 200.0 mg/kg/injection, schedule: Q01DX005 (ip), vehicle: Klucel (hydroxypropylcellulose) (HPC)
[23] = dose: 25.0 mg/kg/injection, schedule: Q01DX009 (ip), vehicle: Klucel (hydroxypropylcellulose) (HPC)

Measured: T/C

O=C(NC(CCS(=O)(=O)NCc1ccc(S(=O)(=O)F)cc1)C(=O)OCc1ccccc1)OCc1ccccc1 (configuration not stated)
inactive: dose: 12.5 mg/kg/injection, schedule: Q01DX009 (ip), vehicle: other 90 % of control | dose: 25.0 mg/kg/injection, schedule: Q01DX009 (ip), vehicle: other 89 % of control | dose: 100.0 mg/kg/injection, schedule: Q01DX009 (ip), vehicle: other 102 % of control | dose: 200.0 mg/kg/injection, schedule: Q01DX009 (ip), vehicle: other 98 % of control

O=C(O)C(CS(=O)(=O)O)S(=O)(=O)O (configuration not stated)
inactive: dose: 7.5 mg/kg/injection, schedule: Q01DX009 (ip), vehicle: saline with Tween-80 110 % of control | dose: 15.0 mg/kg/injection, schedule: Q01DX009 (ip), vehicle: saline with Tween-80 109 % of control | dose: 30.0 mg/kg/injection, schedule: Q01DX009 (ip), vehicle: saline with Tween-80 106 % of control

O=C(Nc1ccccc1C(=O)c1ccccc1)Nc1ccc(F)cc1[N+](=O)[O-]
inactive: [1] 97 % of control | [2] 109 % of control | [3] 94 % of control

Cc1cc(N)c(C)c([N+](=O)[O-])c1
inactive: [4] 95 % of control | [5] 91 % of control | [6] 100 % of control

Brc1ccc(-c2csc(Nc3nc(-c4ccc(Br)cc4)cs3)n2)cc1
inactive: [2] 95 % of control | [3] 100 % of control | dose: 400.0 mg/kg/injection, schedule: Q01DX009 (ip), vehicle: saline with Tween-80 104 % of control

CCC(=O)N(C)[C@@H]1Oc2ccc(O)cc2[C@]1(C)c1cc(O)ccc1O
inactive: dose: 60.0 mg/kg/injection, schedule: Q01DX005 (ip), vehicle: Klucel (hydroxypropylcellulose) (HPC) 98 % of control | dose: 120.0 mg/kg/injection, schedule: Q01DX005 (ip), vehicle: Klucel (hydroxypropylcellulose) (HPC) 97 % of control | dose: 240.0 mg/kg/injection, schedule: Q01DX005 (ip), vehicle: Klucel (hydroxypropylcellulose) (HPC) 99 % of control

Nc1cc2c(cc1O)C1C(C3C2C2(Cl)C(Cl)C(Cl)C3(Cl)C2(Cl)Cl)C2(Cl)C(Cl)C(Cl)C1(Cl)C2(Cl)Cl (configuration not stated)
inactive: [7] 100 % of control | [8] 100 % of control | [9] 96 % of control

CCOC(=O)/C=C/CC1CCNC1 (configuration not stated)
inactive: [10] 100 % of control | [11] 100 % of control | [12] 106 % of control

CCCCNC1=C(Cl)C(=O)c2ccccc2C1=O
inactive: [7] 92 % of control | [8] 92 % of control | [9] 91 % of control | dose: 400.0 mg/kg/injection, schedule: Q01DX009 (ip), vehicle: Klucel (hydroxypropylcellulose) (HPC) 105 % of control

CC(C)c1ccc(C(=O)C2C(=O)C=C(c3ccc(C(C)C)cc3)OC2=O)cc1 (configuration not stated)
inactive: dose: 100.0 mg/kg/injection, schedule: Q01DX001 (ip), vehicle: saline 105 % of control | dose: 200.0 mg/kg/injection, schedule: Q01DX001 (ip), vehicle: saline 108 % of control | dose: 400.0 mg/kg/injection, schedule: Q01DX001 (ip), vehicle: saline 118 % of control

C=CC(C)(O)CS(=O)(=O)c1ccccc1 (configuration not stated)
inactive: [13] 93 % of control | [14] 101 % of control | [15] 101 % of control

CCCCCCCCn1nnnc1C(F)(F)F
inactive: [16] 100 % of control | [17] 102 % of control | [18] 102 % of control

COc1cc(C(=O)n2c(=O)oc(=O)c3cc([N+](=O)[O-])ccc32)cc(OC)c1OC
inactive: [10] 101 % of control | [11] 94 % of control | [12] 89 % of control

CCCCCCCCCCCCSSC(=S)OC(C)C
inactive: dose: 50.0 mg/kg/injection, schedule: Q01DX009 (ip), vehicle: saline + Tween-80 + alcohol 100 % of control | dose: 100.0 mg/kg/injection, schedule: Q01DX009 (ip), vehicle: saline + Tween-80 + alcohol 116 % of control | dose: 200.0 mg/kg/injection, schedule: Q01DX009 (ip), vehicle: saline + Tween-80 + alcohol 122 % of control | dose: 400.0 mg/kg/injection, schedule: Q01DX009 (ip), vehicle: saline + Tween-80 + alcohol 119 % of control

O=C(CBr)N1c2ccccc2S(=O)(=O)c2ccc3ccccc3c21
inactive: [7] 116 % of control and 122 % of control | [9] 119 % of control

CCNC(=O)/C=C(C)/C=C/C=C(C)/C=C/c1c(C)cc(OC)c(C)c1C
inactive: [19] 86 % of control | [20] 90 % of control | [21] 100 % of control and 101 % of control | [22] 108 % of control

COC=C=CC(C)(C)OC
inactive: [19] 102 % of control and 110 % of control | [20] 103 % of control and 91 % of control and 95 % of control | [21] 103 % of control and 112 % of control and 121 % of control | [22] 100 % of control and 103 % of control and 114 % of control

CC1(C)CC(COC(=O)c2c3ccccc3c3ccc4cccc5ccc2c3c54)CC(C)(C)N1O
inactive: [1] 98 % of control | [2] 106 % of control | [3] 91 % of control

CN(C)C1=C(Cl)C(=O)c2ccccc2C1=O
inactive: [23] 100 % of control | [7] 100 % of control | [8] 97 % of control

CCSCCCC(=O)O
inactive: dose: 25.0 mg/kg/injection, schedule: Q01DX009 (ip), vehicle: saline 100 % of control | [13] 100 % of control | [14] 100 % of control

O=P1(N(CCCl)CCCl)Nc2cccc3cccc(c23)N1
inactive: dose: 6.25 mg/kg/injection, schedule: Q01DX009 (ip), vehicle: Klucel (hydroxypropylcellulose) (HPC) 110 % of control and 111 % of control | dose: 12.5 mg/kg/injection, schedule: Q01DX009 (ip), vehicle: Klucel (hydroxypropylcellulose) (HPC) 103 % of control and 114 % of control | [23] 102 % of control and 119 % of control | [7] 120 % of control

CCOC(=O)C1(C)CCCC1N (configuration not stated)
inactive: [10] 92 % of control | [11] 90 % of control

O=C(O)C1SCCCS1
inactive: dose: 60.0 mg/kg/injection, schedule: Q01DX005 (ip), vehicle: saline with Tween-80 100 % of control | dose: 120.0 mg/kg/injection, schedule: Q01DX005 (ip), vehicle: saline with Tween-80 98 % of control | dose: 240.0 mg/kg/injection, schedule: Q01DX005 (ip), vehicle: saline with Tween-80 100 % of control

Cc1cccc(N2CCN(S(C)(=O)=O)CC2)c1
inactive: [5] 101 % of control | [6] 102 % of control | dose: 400.0 mg/kg/injection, schedule: Q04DX003 (ip), vehicle: saline with Tween-80 110 % of control

CCOC(=O)c1ccc2cc(C)c3ccc(N)nc3n2c1=O
inactive: dose: 25.0 mg/kg/injection, schedule: Q01DX005 (ip), vehicle: saline with Tween-80 93 % of control | [16] 98 % of control | [17] 92 % of control and 93 % of control | [18] 88 % of control

COc1ccc(NC(=O)/C=C\C(=O)O)cc1OC
inactive: [16] 96 % of control | [17] 96 % of control | [18] 96 % of control

BrC1(Br)C2CCCCCCC21 (configuration not stated)
inactive: [1] 100 % of control | [4] 100 % of control | [2] 100 % of control | [5] 104 % of control | [3] 100 % of control | [6] 104 % of control

CC(=O)[O][Bi]([c]1ccccc1)[c]1ccccc1
inactive: dose: 3.12 mg/kg/injection, schedule: Q01DX005 (ip), vehicle: Klucel (hydroxypropylcellulose) (HPC) 106 % of control and 108 % of control | dose: 6.25 mg/kg/injection, schedule: Q01DX005 (ip), vehicle: Klucel (hydroxypropylcellulose) (HPC) 108 % of control and 110 % of control | dose: 12.5 mg/kg/injection, schedule: Q01DX005 (ip), vehicle: Klucel (hydroxypropylcellulose) (HPC) 103 % of control and 120 % of control | [19] 118 % of control | [20] 90 % of control

O=S(=O)(F)c1ccc(Cl)cc1C[P+](c1ccccc1)(c1ccccc1)c1ccccc1
inactive: dose: 25.0 mg/kg/injection, schedule: Q01DX001 (ip), vehicle: Klucel (hydroxypropylcellulose) (HPC) 115 % of control and 120 % of control

C#CCOCC(O)CCl (configuration not stated)
inactive: [14] 90 % of control | [15] 105 % of control

COC(=O)C(CCC(=O)CCl)N1C(=O)c2ccccc2C1=O (configuration not stated)
inactive: [23] 108 % of control | [7] 106 % of control

O=C(/C=C/c1ccc([N+](=O)[O-])cc1)Cc1ccccc1
inactive: dose: 100.0 mg/kg/injection, schedule: Q04DX002 (ip), vehicle: saline 97 % of control | dose: 200.0 mg/kg/injection, schedule: Q04DX002 (ip), vehicle: saline 104 % of control | dose: 400.0 mg/kg/injection, schedule: Q04DX002 (ip), vehicle: saline 100 % of control

Source: PubChem BioAssay AID330 (DTP/NCI, 2004)
